The source of these data is patent US20090163528A1, “Pharmaceutical composition having analgesic effects” (priority 2004, published 2009).

Where two headings read alike, the source gives them in different places.

Common to all, as to format: in vivo
Assay [1] concerns Kunming breed mice. Conditions: 200 mg/kg stomach perfusion.
Assay [2] relates to Kunming breed mice. The assay can be described thus: Body twisting test, mixtures of fuziline, benzoylmesaconitine, mesaconitine and hypaconitine in different proportions (Test 4). The conditions noted are these: aspirin 200 mg/kg stomach perfusion. On the procedure:
Enteric coated aspirin tablet, white, 25 mg/pill, supplied by Xuzhou Enhua Pharmaceuticals Co., Ltd, batch No.: 20050312; take 4 pills of enteric coated aspirin tablet; grind and add with distilled water up to 10 ml to compound 10 mg/ml of solution composed of aspirin;
Divide at random the 70 Kunming breed mice, weighing 18-22 g, into 7 groups with equal number of each gender and each group, with the first group as the negative control group and the second group as the positive control group; perfuse the stomach of the first group mice with 0.2 ml/10 g of 10% alcohol; perfuse the stomach of the second group mice with 200 mg/kg (20 times the practice dose) of aspirin; the 3rd, 4th, 5th, 6th and 7th group are groups in five different proportions of […], benzoylmesaconitine, mesaconitine and hypaconitine; perfuse the groups with solution in five different proportions of […], benzoylmesaconitine, mesaconitine and hypaconitine; […]; inject into the stomach cavity of the mice with 0.2 ml of 0.6% glacial acetic acid 30 minutes after administration; observe the number of body twisting of each mouse 5 to 10 minutes after the injection of acetic acid; make statistical analysis of the data to calculate the increasing rate of pain threshold and the standard deviation of each group; compare the intergroup differences between each drug group and the negative control group with t-test.

Assay [3] relates to Kunming breed mice. The conditions noted are these: aspirin 200 mg/kg stomach perfusion.
Assay [4] deals with Kunming breed mice. The assay can be described thus: Body twisting test, mixtures of fuziline and hypaconitine in different proportions (Test 6). Conditions: aspirin 200 mg/kg stomach perfusion.
For assay [5], the system named is Kunming breed mice. The assay can be described thus: Body twisting test, mixtures of fuziline and benzoylmesaconitine in different proportions (Test 7). Conditions: aspirin 200 mg/kg stomach perfusion.
Assay [6] relates to Kunming breed mice. The assay can be described thus: Body twisting test, intramuscular injection of fuziline (Test 8). Conditions: 200 mg/kg ig.
For assay [7], the system named is Kunming breed mice. The assay can be described thus: Body twisting test, skin administration of fuziline (Test 9). Conditions: 200 mg/kg ig.; acetic acid 30 minutes after. The protocol:
Divide randomly the 40 Kunming breed mice, weighing 18-22 g, into 4 groups with equal number of each gender and each group. […] The first group is the negative control group. Smear an even layer of Vaseline plaster 0.1 g/piece onto the hair-disposed area of the of negative control group mice, covered lightly with a piece of gauze (1.5 cm×1.5 cm). The second group, as the positive control group is given stomach perfusion with 200 mg/kg of aspirin (20 times the practice use). […] Except that the mice of the second group are injected into the stomach cavity with 0.6% glacial acetic acid solution 30 minutes after the smearing, the mice of all other groups are injected into the stomach cavity with 0.6% glacial acetic acid solution 1.5 hours after the smearing; observe the number of body twisting of each mouse 5 to 10 minutes after the injection; make statistical analysis of the data to calculate the increasing rate of pain threshold and the standard deviation of each group; compare the intergroup differences between each drug group and the negative control group with t-test.

For `CC(=O)Oc1ccccc1C(=O)O` [Aspirin, aspirin], the “Body twisting number ( χ ± SD)” value is recorded as 3.1 ± 3.3 in the assay on Kunming breed mice [1] (Table 2) and 3.1 ± 3.2 in the assay with Kunming breed mice [1] (Table 3). The Pain suppression rate in the assay with Kunming breed mice [1] (Table 2) was determined as 90.96%; with Kunming breed mice [1] (Table 3), 92.11%; in the assay on Kunming breed mice [2] it was 88.0%; in the assay with Kunming breed mice [3], 82.7%; in the assay with Kunming breed mice [4], 82.7%; in the assay on Kunming breed mice [5] it was 82.7%. The Pain suppression rate in the assay with Kunming breed mice [6] and in the assay with Kunming breed mice [7] was 81.6% throughout. The “Body twisting number ( x ± SD)” value with Kunming breed mice [2] amounted to 3.3 ± 3.2; in the assay with Kunming breed mice [3], 3.0 ± 3.3; with Kunming breed mice [4], 3.1 ± 3.3; with Kunming breed mice [5], 3.1 ± 3.3; with Kunming breed mice [6], 5.1 ± 6.0; in the assay on Kunming breed mice [7], 5.1 ± 6.0.
